Paper PMC10342533, “Novel Tetrazole Derivatives Targeting Tubulin Endowed with Antiproliferative Activity against Glioblastoma Cells” (International Journal of Molecular Sciences, 2023)
“And” between values parts separate entries of the source, which are not always exact repeats. Identical values can stand only once.

Columns and labels:
Format in all cases: cell-based, human
[1] = system: HT-29 (colon adenocarcinoma); assay: Cell growth inhibition, MTT assay, HT-29, without or with verapamil
Experimental: The ability of the synthesized compounds to inhibit the cell proliferation of human cancer cell lines was assayed by measuring cell viability through the use of the MTT method 72 h after treatment. For this purpose, representative cell lines of the most frequent kinds of cancer were selected, including the following: HeLa (cervix epithelioid carcinoma), MCF7 (breast adenocarcinoma), U87 MG (glioblastoma), T98G (temozolomide resistant glioblastoma), HepG2 (hepatocellular carcinoma), HCT8 (colorectal carcinoma), and HT-29 (colon adenocarcinoma).
Multidrug resistance (MDR) proteins, especially P-glycoprotein (P-gp), are often involved in resistance mechanisms affecting tubulin-binding drugs that are frequently related to the failure of cancer therapies. […] These pumps are also part of the blood–brain barrier.
The cell lines were obtained from ATTC (Manassas, VA, USA). […] The cells were periodically tested for Mycoplasma infection by using a MycoAlert kit (Lonza, Norwest, Australia), and only Mycoplasma-free cells were used in the experiments.
Then, every compound was added (10 µL/well) to a final concentration of 10 µM. Untreated cells were used as negative controls. The antiproliferative activity of compounds was measured 72 h after drug exposure through the MTT assay. […] For this purpose, compounds were used at different concentrations, ranging from 10^−10 to 10^−2 M. Measurements were performed in triplicate, and each experiment was repeated three times. The IC50 values were determined using Origin software (version 9.6, OriginLab, Washington, DC, USA).

MCF7 cells = assay: Cell cycle analysis by flow cytometry (PI), MCF7; details: 100 nM
Experimental: (§1) To assess how tubulin polymerization inhibition and the effects on the microtubule network affect the cell cycle, flow cytometry experiments were performed on HeLa, MCF7, and U87 MG cells 24, 48, and 72 h after treatments with compounds 10, 12, and 14 at 100 nM using propidium iodide (PI) for DNA staining and untreated cells as the negative control.
(§2) HeLa, MCF7, or U87 MG cells were seeded in 6-well plates (8·10^4 cells/mL, 2 mL/well) and incubated in complete DMEM Medium (see above) at 37 °C and 5% CO2 atmosphere for 24 h. Then, the cells were treated with selected compounds (10, 12, or 14) at 100 nM, and untreated cells were used as negative controls. Cells were collected 24, 48, or 72 h following treatment and fixed overnight in ethanol/PBS (7:3) at 4 °C. After two washes with PBS, cells were suspended in PBS and incubated in darkness overnight with 0.2 mg/mL RNase A (Sigma-Aldrich, St. Louis, MO, USA), 50 µg/mL propidium iodide (Sigma-Aldrich, St. Louis, MO, USA), and Triton 10x at room temperature. A BD Accuri™ C6 Plus Flow Cytometer (BD Biosciences, Franklin Lakes, NJ, USA) cytometer was used to analyze the samples, and BD Accuri™ C6 Software (version 1.0.264.21) was used for data analysis.

U87 MG cells = assay: Cell cycle analysis by flow cytometry (PI), U87 MG; details: 100 nM
Experimental: as §1, §2

[2] = system: microtubule network of HeLa cells; assay: Immunofluorescence confocal microscopy of microtubule network, HeLa; details: 24 h, 100 nM, α-tubulin immunofluorescence
Experimental: To elucidate if the interaction of the compounds with tubulin inferred from the in vitro TPI experiments has consequences on cellular microtubules, we studied the effect of representative compounds on the microtubule network of HeLa, MCF7, and U87 MG cells 24 h after treatment via the use of immunofluorescence confocal microscopy through α-tubulin and nuclei labeling.
HeLa, MCF7, and U87 MG cells (8·10^4 cells/mL) were grown on 0.01% poly-L-lysine pre-coated square glass coverslips (22 mm^2), deposited on 6-well plates (1 coverslip/well), and incubated in complete DMEM medium (see above) at 37 °C and 5% CO2 atmosphere for 24 h. Then, the cells were incubated for 24 h in the presence or absence (negative controls) of selected compounds (10, 12, or 14) at 100 nM. After drug treatment incubation, medium was removed, and coverslips were washed three times with PBS, fixed with 4% formaldehyde in PBS for 10 min, permeabilized with 0.5% Triton X-100, (Sigma-Aldrich, St. Louis, MO, USA) in PBS for 90 s at 4 °C, blocked with 10% BSA in PBS for 30 min, and washed with PBS four times. The coverslips were incubated for 1 h with anti-α-tubulin mouse monoclonal antibody (Sigma-Aldrich, St. Louis, MO, USA), diluted 1:200 in PBS containing 3% BSA, washed four times with PBS, and then incubated in darkness with the fluorescent secondary antibody Alexa Fluor 488 goat anti-mouse IgG (Molecular Probes, Invitrogen, Eugenen, OR, USA) and diluted 1:400 in PBS containing 1% BSA for 1.5 h. The coverslips were washed four times with PBS, and a drop of ProLong™ Gold Antifade Mountant containing DAPI (ThermoFisher, Waltham, MA, USA) was added for cell nuclei staining. The samples were analyzed via confocal microscopy, which was performed by using a LEICA SP5 microscope DMI-6000V model coupled to a LEICA LAS AF software computer.

[3] = Homo sapiens, HT-29, 72 h after drug exposure
[4] = Homo sapiens, HT-29, mean ± SD, Table S1
[5] = mean ± SD, Table S1, in the presence of verapamil (10 µM)

In the case of `CSc1cc(-c2nnnn2-c2ccc3c(ccn3C)c2)cc(Cl)n1` [Compound 10, 5-(5-(2-chloro-6-(methylsulfanyl)pyridin-4-yl)-1H-tetrazol-1-yl)-1-methyl-1H-indole], the IC50 [1, 3] is reported as 59 nM, the IC50 [1, 4] is reported as 59.4 ± 0.5 nM and the IC50 [1, 5] is reported as 61.4 ± 0.4 nM. The G0/G1 population (MCF7 cells; MCF7, 24 h) was 22.5 % Cells, the G2/M population (MCF7 cells; MCF7, 24 h) was 65.8 % Cells and the S population (MCF7 cells; MCF7, 24 h) was 3.9 % Cells. For the same molecule, the SubG0/G1 population (MCF7 cells; MCF7, 24 h) was 7.7 % Cells, the G0/G1 population (MCF7 cells; MCF7, 48 h) was 16.9 % Cells and the G2/M population (MCF7 cells; MCF7, 48 h) was 58.1 % Cells. It also gave a S population (MCF7 cells; MCF7, 48 h) of 4.6 % Cells, a SubG0/G1 population (MCF7 cells; MCF7, 48 h) of 20.4 % Cells and a G0/G1 population (MCF7 cells; MCF7, 72 h) of 13.7 % Cells. For the same molecule, the G2/M population (MCF7 cells; MCF7, 72 h) was 54.8 % Cells, the S population (MCF7 cells; MCF7, 72 h) was 4.4 % Cells and the SubG0/G1 population (MCF7 cells; MCF7, 72 h) was 27 % Cells and 27.2 % Cells. It also gave a G0/G1 population (U87 MG cells; 24 h) of 21.1 % Cells, a G2/M population (U87 MG cells; 24 h) of 47.8 % Cells and a S population (U87 MG cells; 24 h) of 8.3 % Cells. For the same molecule, the SubG0/G1 population (U87 MG cells; 24 h) was 23.5 % Cells, the G0/G1 population (U87 MG cells; 48 h) was 11.0 % Cells and the G2/M population (U87 MG cells; 48 h) was 31.6 % Cells. It also gave a S population (U87 MG cells; 48 h) of 9.0 % Cells, a SubG0/G1 population (U87 MG cells; 48 h) of 49.2 % Cells and a G0/G1 population (U87 MG cells; 72 h) of 10.5 % Cells. For the same molecule, the G2/M population (U87 MG cells; 72 h) was 17.0 % Cells, the S population (U87 MG cells; 72 h) was 2.9 % Cells and the “effect on microtubule network” value [2] was “severe microtubule network disruption”.

`Cn1cc(C=O)c2cc(-n3nnnc3-c3cc(Cl)nc(Cl)c3)ccc21` [Compound 12, 5-(5-(2,6-dichloropyridin-4-yl)-1H-tetrazol-1-yl)-1-methyl-1H-indole-3-carbaldehyde] gave an IC50 [1, 3] of 51 nM, an IC50 [1, 4] of 51.3 ± 0.3 nM and an IC50 [1, 5] of 56.5 ± 0.5 nM. For the same molecule, the G0/G1 population (MCF7 cells; MCF7, 24 h) was 19.4 % Cells, the G2/M population (MCF7 cells; MCF7, 24 h) was 68.6 % Cells and the S population (MCF7 cells; MCF7, 24 h) was 7.0 % Cells. It also gave a SubG0/G1 population (MCF7 cells; MCF7, 24 h) of 5.2 % Cells, a G0/G1 population (MCF7 cells; MCF7, 48 h) of 16.4 % Cells and a G2/M population (MCF7 cells; MCF7, 48 h) of 62.9 % Cells. The S population (MCF7 cells; MCF7, 48 h) was 7.9 % Cells, the SubG0/G1 population (MCF7 cells; MCF7, 48 h) was 13.1 % Cells and the G0/G1 population (MCF7 cells; MCF7, 72 h) was 15.0 % Cells. For the same molecule, the G2/M population (MCF7 cells; MCF7, 72 h) was 59.1 % Cells, the S population (MCF7 cells; MCF7, 72 h) was 10.8 % Cells and the SubG0/G1 population (MCF7 cells; MCF7, 72 h) was 15 % Cells and 15.5 % Cells. It also gave a G0/G1 population (U87 MG cells; 24 h) of 27.3 % Cells, a G2/M population (U87 MG cells; 24 h) of 37.8 % Cells and a S population (U87 MG cells; 24 h) of 9.6 % Cells. The SubG0/G1 population (U87 MG cells; 24 h) was 26.1 % Cells, the G0/G1 population (U87 MG cells; 48 h) was 11.9 % Cells and the G2/M population (U87 MG cells; 48 h) was 27.4 % Cells. For the same molecule, the S population (U87 MG cells; 48 h) was 10.3 % Cells, the SubG0/G1 population (U87 MG cells; 48 h) was 51.1 % Cells and the G0/G1 population (U87 MG cells; 72 h) was 12.2 % Cells. For the same molecule, the G2/M population (U87 MG cells; 72 h) was 10.0 % Cells, the S population (U87 MG cells; 72 h) was 7.8 % Cells and the “effect on microtubule network” value [2] was “severe microtubule network disruption”.

`CSc1cc(-c2nnnn2-c2ccc3c(c2)c(C=O)cn3C)cc(Cl)n1` [Compound 14, 5-(5-(2-chloro-6-(methylsulfanyl)pyridin-4-yl)-1H-tetrazol-1-yl)-1-methyl-1H-indole-3-carbaldehyde] gave an IC50 [1, 3] of 31 nM, an IC50 [1, 4] of 31.1 ± 0.3 nM and an IC50 [1, 5] of 33.1 ± 0.4 nM. It also gave a G0/G1 population (MCF7 cells; MCF7, 24 h) of 22.7 % Cells, a G2/M population (MCF7 cells; MCF7, 24 h) of 66.0 % Cells and a S population (MCF7 cells; MCF7, 24 h) of 5.9 % Cells. For the same molecule, the SubG0/G1 population (MCF7 cells; MCF7, 24 h) was 5.2 % Cells, the G0/G1 population (MCF7 cells; MCF7, 48 h) was 16.8 % Cells and the G2/M population (MCF7 cells; MCF7, 48 h) was 58.4 % Cells. It also gave a S population (MCF7 cells; MCF7, 48 h) of 6.9 % Cells, a SubG0/G1 population (MCF7 cells; MCF7, 48 h) of 17.9 % Cells and a G0/G1 population (MCF7 cells; MCF7, 72 h) of 19.1 % Cells. For the same molecule, the G2/M population (MCF7 cells; MCF7, 72 h) was 38.7 % Cells, the S population (MCF7 cells; MCF7, 72 h) was 8.1 % Cells and the SubG0/G1 population (MCF7 cells; MCF7, 72 h) was 34 % Cells and 34.6 % Cells. For the same molecule, the G0/G1 population (U87 MG cells; 24 h) was 23.7 % Cells, the G2/M population (U87 MG cells; 24 h) was 41.3 % Cells and the S population (U87 MG cells; 24 h) was 8.5 % Cells. The SubG0/G1 population (U87 MG cells; 24 h) was 27.2 % Cells, the G0/G1 population (U87 MG cells; 48 h) was 12.5 % Cells and the G2/M population (U87 MG cells; 48 h) was 32.1 % Cells. For the same molecule, the S population (U87 MG cells; 48 h) was 10.6 % Cells, the SubG0/G1 population (U87 MG cells; 48 h) was 45.4 % Cells and the G0/G1 population (U87 MG cells; 72 h) was 11.1 % Cells. The G2/M population (U87 MG cells; 72 h) was 9.6 % Cells, the S population (U87 MG cells; 72 h) was 6.9 % Cells and the “effect on microtubule network” value [2] was “severe microtubule network disruption”.
